Columns and labels:
Oestrogen = assay: Receptor binding assay; set-up: species or system Bovine; conditions: sarsasapogenin 10 μM
Protocol: (§1) The receptor binding was investigated using the following method: Sarsasapogenin was incubated with tissue or cell homogenate that expressed the receptor of interest and a known concentration a radiolabelled compound with affinity for the receptor of interest. After the incubation period the non-bound radiolabelled compound was removed and the amount of specific binding was quantified. The amount of specific binding in the presence and absence of sarsasapogenin were compared and the percent inhibition of the binding of the radiolabelled compound by sarsasapogenin was calculated. The source of the receptor, the incubation conditions, the radiolabelled compound used varied depending on each specific assay.

Progesterone = assay: Receptor binding assay; set-up: species or system Bovine; conditions: sarsasapogenin 10 μM
Protocol: as §1

Glutamate, AMPA = assay: Binding assay; set-up: species or system Rat; conditions: smilagenin 1 μM
Protocol: as §1
(§2) Using the same methods as described above, the binding of smilagenin (1 μM) to the receptors listed in Table 2 below, and the effect of smilagenin on the activity of the enzymes listed in Table 2 below, were investigated.

[1] = system: GABAA Chloride Channel, TBOB; assay: Binding assay; set-up: species or system Rat; conditions: smilagenin 1 μM
Protocol: as §1, §2

[2] = system: Calcium Channel L-Type, Dihydropyridine; assay: Binding assay; set-up: species or system Rat; conditions: smilagenin 1 μM
Protocol: as §1, §2

[3] = system: Calcium Channel L-Type, Benzothiazepine; assay: Binding assay; set-up: species or system Rat; conditions: smilagenin 1 μM
Protocol: as §1, §2

Purinergic P2Y = assay: Binding assay; set-up: species or system Rat; conditions: smilagenin 1 μM
Protocol: as §1, §2

GABAA Muscimol, Central = assay: Binding assay; set-up: species or system Rat; conditions: smilagenin 1 μM
Protocol: as §1, §2

[4] = system: Glutamate, NMDA, Phencyclidine; assay: Binding assay; set-up: species or system Rat; conditions: smilagenin 1 μM
Protocol: as §1, §2

Thyroid Hormone = assay: Binding assay; set-up: species or system Rat; conditions: smilagenin 1 μM
Protocol: as §1, §2

Potassium Channel [KA] = assay: Binding assay; set-up: species or system Rat; conditions: smilagenin 1 μM
Protocol: as §1, §2

Potassium Channel [SKCA] = assay: Binding assay; set-up: species or system Rat; conditions: smilagenin 1 μM
Protocol: as §1, §2

Gabapentin = assay: Binding assay; set-up: species or system Rat; conditions: smilagenin 1 μM
Protocol: as §1, §2

Rolipram = assay: Binding assay; set-up: species or system Rat; conditions: smilagenin 1 μM
Protocol: as §1, §2

Imidazoline I2, central = assay: Binding assay; set-up: species or system Rat; conditions: smilagenin 1 μM
Protocol: as §1, §2

[5] = system: Inositol trisphosphate IP3; assay: Binding assay; set-up: species or system Rat; conditions: smilagenin 1 μM
Protocol: as §1, §2

Sodium Channel, Site 2 = assay: Binding assay; set-up: species or system Rat; conditions: smilagenin 1 μM
Protocol: as §1, §2

[6] = system: Calcium Channel L-Type, Phenylalkylamine; assay: Binding assay; set-up: species or system Rat; conditions: smilagenin 1 μM
Protocol: as §1, §2

Glutamate, Kainate = assay: Binding assay; set-up: species or system Rat; conditions: smilagenin 1 μM
Protocol: as §1, §2

[7] = system: GABAA Flunitrazepam, Central; assay: Binding assay; set-up: species or system Rat; conditions: smilagenin 1 μM
Protocol: as §1, §2

GDNF mRNA = GDNF mRNA in rat dopaminergic neurones following exposure to MPP+; format: cell-based; conditions: 10 μM after MPP+ 2 μM 48 h
Protocol: Rat dopaminergic neurones were prepared using a slightly modified previously described method (Brouard et al., Journal of Neuroscience, 1992, 12, pp. 1409-1415). After 5 days in culture MPP^+ (2 μM), a specific dopaminergic neurotoxin, or vehicle (saline) was added for 48 h. The culture medium was then replaced with fresh medium containing smilagenin (10 μM) or vehicle (DMSO, 0.25%) and the level of GDNF mRNA in the dopaminergic neurones was assessed after 10 min and 2, 24, 48 and 72 h by rt RT-PCR.

## C[C@H]1CC[C@@]2(OC1)O[C@H]1C[C@H]3[C@@H]4CC[C@@H]5C[C@@H](O)CC[C@]5(C)[C@H]4CC[C@]3(C)[C@H]1[C@@H]2C [Sarsasapogenin, sarsasapogenin]
Oestrogen
  Effect (%): NS (NS = No significant response. Significance was taken as ≧30% stimulation or inhibition)
Progesterone
  Effect (%): NS (NS = No significant response. Significance was taken as ≧30% stimulation or inhibition)

## C[C@@H]1CC[C@@]2(OC1)O[C@H]1C[C@H]3[C@@H]4CC[C@@H]5C[C@@H](O)CC[C@]5(C)[C@H]4CC[C@]3(C)[C@H]1[C@@H]2C [Smilagenin, smilagenin]
Glutamate, AMPA
  Effect (%): NS (NS = No significant response. Significance was taken as ≧30% stimulation or inhibition)
[1]
  Effect (%): NS (NS = No significant response. Significance was taken as ≧30% stimulation or inhibition)
[2]
  Effect (%): NS (NS = No significant response. Significance was taken as ≧30% stimulation or inhibition)
[3]
  Effect (%): NS (NS = No significant response. Significance was taken as ≧30% stimulation or inhibition)
Purinergic P2Y
  Effect (%): NS (NS = No significant response. Significance was taken as ≧30% stimulation or inhibition)
GABAA Muscimol, Central
  Effect (%): NS (NS = No significant response. Significance was taken as ≧30% stimulation or inhibition)
[4]
  Effect (%): NS (NS = No significant response. Significance was taken as ≧30% stimulation or inhibition)
Thyroid Hormone
  Effect (%): NS (NS = No significant response. Significance was taken as ≧30% stimulation or inhibition)
Potassium Channel [KA]
  Effect (%): NS (NS = No significant response. Significance was taken as ≧30% stimulation or inhibition)
Potassium Channel [SKCA]
  Effect (%): NS (NS = No significant response. Significance was taken as ≧30% stimulation or inhibition)
Gabapentin
  Effect (%): NS (NS = No significant response. Significance was taken as ≧30% stimulation or inhibition)
Rolipram
  Effect (%): NS (NS = No significant response. Significance was taken as ≧30% stimulation or inhibition)
Imidazoline I2, central
  Effect (%): NS (NS = No significant response. Significance was taken as ≧30% stimulation or inhibition)
[5]
  Effect (%): NS (NS = No significant response. Significance was taken as ≧30% stimulation or inhibition)
Sodium Channel, Site 2
  Effect (%): NS (NS = No significant response. Significance was taken as ≧30% stimulation or inhibition)
[6]
  Effect (%): NS (NS = No significant response. Significance was taken as ≧30% stimulation or inhibition)
Glutamate, Kainate
  Effect (%): NS (NS = No significant response. Significance was taken as ≧30% stimulation or inhibition)
[7]
  Effect (%): NS (NS = No significant response. Significance was taken as ≧30% stimulation or inhibition)
GDNF mRNA; smilagenin exposure 0.167 h
  Relative amount of GDNF mRNA (% of control at 0.167 h): 119.9 ± 19.8 % of control at 0.167 h
GDNF mRNA; smilagenin exposure 2 h
  Relative amount of GDNF mRNA (% of control at 0.167 h): 581.6 ± 66.3 % of control at 0.167 h
GDNF mRNA; smilagenin exposure 24 h
  Relative amount of GDNF mRNA (% of control at 0.167 h): 3319.1 ± 830.3 % of control at 0.167 h
GDNF mRNA; smilagenin exposure 48 h
  Relative amount of GDNF mRNA (% of control at 0.167 h): 2185.3 ± 304.1 % of control at 0.167 h
GDNF mRNA; smilagenin exposure 72 h
  Relative amount of GDNF mRNA (% of control at 0.167 h): 1413.5 ± 352.1 % of control at 0.167 h

— patent publication US20120034193A1, “TREATMENT OF NEUROTROPHIC FACTOR MEDIATED DISORDERS” (priority 2009, published 2012)
